Tests used:
Assay type in all cases: cell-based
ERα [1] = target: T1, ERα (Homo sapiens, UniProt P03372); assay: Degradation of ERα in MCF-7 cells (immunoblotting, 4 h)
T1 sequence (P03372 1-595): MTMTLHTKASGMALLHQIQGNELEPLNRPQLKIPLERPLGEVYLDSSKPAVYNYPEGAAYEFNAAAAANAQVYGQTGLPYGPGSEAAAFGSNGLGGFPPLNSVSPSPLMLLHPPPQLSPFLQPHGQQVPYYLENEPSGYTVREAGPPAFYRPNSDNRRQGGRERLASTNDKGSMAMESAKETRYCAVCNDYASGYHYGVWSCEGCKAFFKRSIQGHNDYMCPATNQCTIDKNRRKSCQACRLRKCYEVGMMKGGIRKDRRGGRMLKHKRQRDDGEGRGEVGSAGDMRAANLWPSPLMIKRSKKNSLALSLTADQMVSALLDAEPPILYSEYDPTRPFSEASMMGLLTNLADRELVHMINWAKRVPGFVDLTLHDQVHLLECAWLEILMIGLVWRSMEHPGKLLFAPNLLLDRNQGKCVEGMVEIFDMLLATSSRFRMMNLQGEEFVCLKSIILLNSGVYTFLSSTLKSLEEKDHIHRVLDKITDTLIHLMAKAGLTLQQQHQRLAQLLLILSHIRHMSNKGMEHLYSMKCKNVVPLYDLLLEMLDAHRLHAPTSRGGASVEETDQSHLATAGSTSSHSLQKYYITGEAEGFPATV
Description: MCF-7 cells were inoculated into 6-well plates at a density of 3×10^5 cells/well and cultured at 37°C, 5% CO2 for 24h. After the cells were attached to the wall, 1µL of the compound solution in dimethyl sulfoxide (final concentration 0.15-1000nM) was added and continued to be cultured in incubator at 37°C with 5% CO2 for 4 h. After 4 h, the culture medium was discarded, and each well was washed once with pre-cooled 1×DPBS, and the cells were lysed with a mixture of 50 µL of RIPA lysis buffer (P0013B, Beyotime) and 1× protease inhibitor (P1005, Beyotime), and then centrifuged at 14,000 g for 30 min at 4°C after resting on ice for 20 min, and the supernatant was carefully collected to detect the protein level of ERα by protein immunoblotting (Immunoblotting).
Protein immunoblotting: The total protein concentration in the collected cell lysate supernatant was determined by BCA Protein Concentration Assay Kit (Enhanced) (P0009, Beyotime). According to the total protein concentration detected by BCA, the protein was adjusted to 1 µg/µL with RIPA lysis buffer and 5× SDS-PAGE protein loading buffer (MB01015, Genscript), and the protein was denatured by water bath at 95°C for 5 min, and then centrifuged after denaturation to enrich the condensate on the wall of the centrifuge tubes as a loading sample. […] At the end of electrophoresis, the proteins in the SDS-PAGE gels were transferred to a PVDF membrane at a constant voltage of 100 V for 60 min. After that, the PVDF membrane corresponding to ERα protein and internal reference protein was cut out and incubated in 1×QµickBlock blocking solution (P0252, Beyotime) for 30 min at room temperature on a shaker. […] Protein profiles were analyzed by Image Studio Lite analysis software for grayscale values. Grayscale correction values were calculated for each sample using the Formula: corrected grayscale value = grayscale value of the target protein /corresponding grayscale value of the internal reference. The degradation rate for the compounds was then calculated by comparing the corrected grayscale values of the compound group to the control group. Table 7 Degradation rate (%) of ERα by the PROTAC compounds of the present disclosure and positive control sample in MCF-7 cells

ERα [2] = target: T1, ERα; assay: Degradation of ERα in T-47D cells (immunoblotting, 4 h); parameters: host or cells: T-47D
Description: T-47D cells were inoculated into 6-well plates at a density of 3×10^5 cells/well and cultured at 37°C, 5% CO2 for 24 h. After the cells were attached to the wall, 1µL of the compound solution in dimethyl sulfoxide (final concentration 0.15-1000 nM) was added and continued to be cultured in the incubator with 5% CO2 at 37°C for 4 h. After 4 h, the culture medium was discarded, and each well was washed once with pre-cooled 1×DPBS, and the cells were lysed with a mixture of 50 µL of RIPA lysis buffer (P0013B, Beyotime) and 1× protease inhibitor (P1005, Beyotime), and then centrifuged at 14,000 g for 30 min at 4°C after resting on ice for 20 min, and the supernatant was carefully collected to detect the protein level of ERα by protein immunoblotting (Immunoblotting).

MCF-7 cells = assay: Inhibition of cell proliferation of MCF-7 cells (CCK-8, 9 days); conditions: treated for 9 days, CCK-8 kit (Table 6)
Text: Test Example 4 Inhibitory effect of the PROTAC compounds disclosed in the present disclosure on cell proliferation of MCF-7 cells
The complete medium required for MCF-7 cells (source ATCC) was DMEM (gibco, Product number :11995-065) basal medium containing 10% fetal bovine serum. MCF-7 cells were inoculated in 96-well plates at a density of 800 cells/well, and different concentrations of the PROTAC compounds 1-55 provided in the embodiments of the present disclosure and a positive control sample ARV-471 (source: Innochem) were prepared to treat cells, and cells were treated at 37°C in a cell culture incubator with 5% CO2 for 9 days. Cell viability was detected using a CCK -8 kit (Beyotime , Product number: C0040) according to the manufacturer's instruction. […] Table 5 IC50 values for inhibition of the proliferation of MCF-7 cells by the PROTAC compounds of the present disclosure and positive control sample

Compound | Degradation rate (%) of ERα in MCF-7 cells (ERα [1]; 1nM compound) [%] | Degradation rate (%) of ERα in MCF-7 cells (ERα [1]; 10nM compound) [%] | Degradation rate (%) of ERα in T-47D cells (ERα [2]; 1nM compound) [%] | Degradation rate (%) of ERα in T-47D cells (ERα [2]; 10nM compound) [%] | IC50 (MCF-7 cells) [nM]
O=C1CCC(N2Cc3cc4c(cc3C2=O)OC2(CC4)CN(C3CCC(N4CCN(c5ccc([C@@H]6c7ccc(O)cc7CC[C@@H]6c6ccccc6)cc5)CC4)CC3)C2)C(=O)N1 (stereo partly shown) [B16] | -36 | 16 | 24 | 60 | 740
O=C1CCC(N2Cc3c(ccc4c3OCC43CCN(C(=O)CN4CCC5(CC4)CN(c4ccc([C@@H]6c7ccc(O)cc7CC[C@@H]6c6ccccc6)cc4)C5)CC3)C2=O)C(=O)N1 (stereo partly shown) [B17] | 37 | 61 | 52 | 76 | 16.6
O=C1CCC(N2Cc3c(ccc4c3OCC43CCN(C4CCN(C(=O)C5CCC6(CC5)CCN(c5ccc([C@@H]7c8ccc(O)cc8CC[C@@H]7c7ccccc7)cc5)CC6)CC4)CC3)C2=O)C(=O)N1 (stereo partly shown) [B18] | 36 | 64 | 54 | 79 | 15.6
O=C1CCC(N2Cc3c(ccc4c3OCC43CCN(CCNC(=O)C4CCC5(CC4)CCN(c4ccc([C@@H]6c7ccc(O)cc7CC[C@@H]6c6ccccc6)cc4)CC5)CC3)C2=O)C(=O)N1 (stereo partly shown) [B19] | 26 | 72 | 55 | 73 | 4170
O=C1CCC(N2Cc3c(ccc4c3OCC43CCN(C(=O)CN4CC5(C4)CN(c4ccc([C@@H]6c7ccc(O)cc7CC[C@@H]6c6ccccc6)cc4)C5)CC3)C2=O)C(=O)N1 (stereo partly shown) [B20] | 42 | 64 | 47 | 73 | 1630
O=C1CCC(N2Cc3c(ccc4c3OCC43CCN(CC(=O)N4CC5(C4)CN(c4ccc([C@@H]6c7ccc(O)cc7CC[C@@H]6c6ccccc6)cc4)C5)CC3)C2=O)C(=O)N1 (stereo partly shown) [B21] | 38 | 55 | 66 | 83 | 312
O=C1CCC(N2Cc3c(ccc4c3OCC43CCN(CC(=O)N4CCC5(CC4)CN(c4ccc([C@@H]6c7ccc(O)cc7CC[C@@H]6c6ccccc6)cc4)C5)CC3)C2=O)C(=O)N1 (stereo partly shown) [B22] | 38 | 70 | 47 | 83 | 11.8
O=C1CCC(N2Cc3c(ccc4c3OCC43CCN(CC(=O)N4CCC5(CCC(C#Cc6ccc([C@@H]7c8ccc(O)cc8CC[C@@H]7c7ccccc7)cc6)CC5)CC4)CC3)C2=O)C(=O)N1 (stereo partly shown) [B29] | 7 | 16 | -11 | 14 | 224
O=C1CCC(N2Cc3c(ccc4c3OCC43CCN(CC(=O)N4CC5(CCC(C#Cc6ccc([C@@H]7c8ccc(O)cc8CC[C@@H]7c7ccccc7)cc6)CC5)C4)CC3)C2=O)C(=O)N1 (stereo partly shown) [B30] | 19 | 40 | 15 | 46 | 9.92
CN(CC1CCN(c2ccc([C@@H]3c4ccc(O)cc4CC[C@@H]3c3ccccc3)cc2)CC1)[C@H]1CC[C@@H](C(=O)N2CCC3(CC2)COc2c3ccc3c2CN(C2CCC(=O)NC2=O)C3=O)CC1 (stereo partly shown) [B34] | 64 | 71 | 71 | 83 | 179
CN(C1CCN(c2ccc([C@@H]3c4ccc(O)cc4CC[C@@H]3c3ccccc3)cc2)CC1)[C@H]1CC[C@@H](C(=O)N2CCC3(CC2)COc2c3ccc3c2CN(C2CCC(=O)NC2=O)C3=O)CC1 (stereo partly shown) [B35] | 60 | 72 | 74 | 88 | 49.7
O=C1CCC(N2Cc3c(ccc4c3OCC43CCN(C4CC5CCCC(C4)N5C(=O)C4CCN(c5ccc([C@@H]6c7ccc(O)cc7CC[C@@H]6c6ccccc6)cc5)CC4)CC3)C2=O)C(=O)N1 (stereo partly shown) [D1] | 19 | 68 | 34 | 83 | 9.05
O=C1CCC(N2Cc3c(ccc4c3OCC43CCN(C4CC5CC4CN5C(=O)C4CCN(c5ccc([C@@H]6c7ccc(O)cc7CC[C@@H]6c6ccccc6)cc5)CC4)CC3)C2=O)C(=O)N1 (stereo partly shown) [D2] | 31 | 29 | 61 | 68 | 3620
O=C1CCC(N2Cc3c(ccc4c3OCC43CCN(C4CC5CC4CN5C4CC5(CCN(c6ccc([C@@H]7c8ccc(O)cc8CC[C@@H]7c7ccccc7)cc6)CC5)C4)CC3)C2=O)C(=O)N1 (stereo partly shown) [D3] | 38 | 60 | 34 | 73 | 6.58
O=C1CCC(N2Cc3c(ccc4c3OCC43CCN(C4CN(C(=O)C5CCN(c6ccc([C@@H]7c8ccc(O)cc8CC[C@@H]7c7ccccc7)cc6)CC5)C4)CC3)C2=O)C(=O)N1 (stereo partly shown) [D4] | 41 | 69 | 54 | 79 | 3580
O=C1CCC(N2Cc3c(ccc4c3OCC43CCN(CC4CN(C(=O)C5CCN(c6ccc([C@@H]7c8ccc(O)cc8CC[C@@H]7c7ccccc7)cc6)CC5)C4)CC3)C2=O)C(=O)N1 (stereo partly shown) [D5] | 61 | 58 | 68 | 80 | 180
COC1(CN2CCC3(CC2)COc2c3ccc3c2CN(C2CCC(=O)NC2=O)C3=O)CCN(C(=O)C2CCN(c3ccc([C@@H]4c5ccc(O)cc5CC[C@@H]4c4ccccc4)cc3)CC2)CC1 (stereo partly shown) [D6] | 38 | 59 | 59 | 84 | 33000
